MIC data for two compounds are collected here from US20030124104A1, “Probiotic compositions” (priority 2001, published 2003).

Holding throughout (format): cell-based
One experiment has as its system B. subtilis. The experiment is described as follows: MIC dilutions of bile acids, B. subtilis.
The next experiment concerns S. aureus. The experiment can be described thus: MIC dilutions of bile acids, S. aureus.
Another experiment relates to P. mirabilils. The experiment is described as follows: MIC dilutions of bile acids, P. mirabilils.
The subject of another experiment is E. faecalis. The experiment is described as follows: MIC dilutions of bile acids, E. faecalis.
The test system of another experiment is E. coli. The experiment is described as follows: MIC dilutions of bile acids, E. coli.
The next experiment relates to S. pneumoniae. The experiment is described as follows: MIC dilutions of bile acids, S. pneumoniae.
The test system of a further experiment is K. pneumoniae. The experiment is described as follows: MIC dilutions of bile acids, K. pneumoniae.
The test system of the next experiment is B. clausii. The experiment can be described thus: MIC dilutions of bile acids, B. clausii.
The subject of the next experiment is E. Faecium. The experiment can be described thus: MIC dilutions of bile acids, E. Faecium.

Values joined by “and” are separate entries in the source; they are usually repeats but may differ in a detail not shown here. Equal values may be shown once. “Also recorded” adds a separate entry of the source. Read-outs that look alike come from different tables or passages of the source.

As a reminder, the MIC is the smallest concentration in the dilution series that meets the test's criterion for growth inhibition. For `C[C@H](CCC(=O)NCCS(=O)(=O)O)[C@H]1CC[C@H]2[C@@H]3CC[C@@H]4C[C@H](O)CC[C@]4(C)[C@H]3C[C@H](O)[C@]12C` [TDOC, tauro-deoxycholic acid], the MIC with B. subtilis (Bacillus subtilis, read-out: MIC) was 195 µg/mL and 400 µM; in the experiment with S. aureus (Staphylococcus aureus, read-out: MIC) it was ≥ 25000 µg/mL and ≥ 51200 µM; in the experiment with P. mirabilils (read-out: MIC), ≥ 25000 µg/mL and ≥ 51200 µM; in the experiment on E. faecalis (Enterococcus faecalis, read-out: MIC) it was 25000 µg/mL and 51200 µM; against E. coli (Escherichia coli) it was ≥ 25000 µg/mL and ≥ 51200 µM; in the experiment on S. pneumoniae (Streptococcus pneumoniae, read-out: MIC) it was 25000 µg/mL and 51200 µM. Moreover, the minimum inhibitory concentration (MIC) is ≥ 25000 µg/mL and ≥ 51200 µM in the experiment with K. pneumoniae (Klebsiella pneumoniae, read-out: MIC); 24 µg/mL and ≤ 50 µM with B. clausii (Shouchella clausii, read-out: MIC); 3120 µg/mL and 6400 µM with E. Faecium (Enterococcus faecium, read-out: MIC).

Take `C[C@H](CCC(=O)O)[C@H]1CC[C@H]2[C@@H]3CC[C@@H]4C[C@H](O)CC[C@]4(C)[C@H]3C[C@H](O)[C@]12C` [DOC, deoxycholic acid]: the MIC against B. subtilis is 78 μg/mL and (0.2) mM; in the experiment with S. aureus, “≧20 000 μg/mL; also recorded: (≧51.2) mM”; against P. mirabilils, “≧20 μg/mL; also recorded: (≧0.05) mM”; in the experiment with E. faecalis, 625 μg/mL and (1.6) mM; against E. coli (E. coli), “≧20 μg/mL; also recorded: (≧0.05) mM”; with S. pneumoniae, 20 μg/mL and (0.05) mM. Further, the MIC entry in the experiment on K. pneumoniae is “≧20 μg/mL; also recorded: (≧0.05) mM”; in the experiment on B. clausii it was 78 μg/mL and (0.2) mM; with E. Faecium, 625 μg/mL and (1.6) mM.
